{"source": "patent US8846750B2", "about": "“Pharmaceutical and food compositions for preventing or treating diabetes or obesity” (Korea Ocean Research and Development Institute, priority 2010, dated 2014)", "key": {"PTP-1b": {"target": "T1, PTP-1b (Homo sapiens, UniProt P18031)", "T1 construct": "purchased Bioneer, Korea", "T1 sequence (P18031 1-435)": "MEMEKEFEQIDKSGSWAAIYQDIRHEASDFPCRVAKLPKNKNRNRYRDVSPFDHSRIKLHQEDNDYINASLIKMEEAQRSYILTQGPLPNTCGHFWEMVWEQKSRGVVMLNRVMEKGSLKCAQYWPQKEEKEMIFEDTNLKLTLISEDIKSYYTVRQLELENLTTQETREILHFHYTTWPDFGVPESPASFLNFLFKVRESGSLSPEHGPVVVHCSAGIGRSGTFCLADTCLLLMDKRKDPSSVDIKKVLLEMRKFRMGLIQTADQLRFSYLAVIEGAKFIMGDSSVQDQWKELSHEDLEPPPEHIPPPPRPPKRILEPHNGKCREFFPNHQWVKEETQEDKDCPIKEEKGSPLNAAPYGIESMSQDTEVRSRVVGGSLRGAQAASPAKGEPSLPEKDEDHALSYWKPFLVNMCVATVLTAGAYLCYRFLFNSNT", "experiment": "Selectivity for protein tyrosine phosphatases: PTP-1b", "assay_type": "biochemical", "conditions": "at a concentration of 0.2 µM (IC50); read-out: inhibition rate against PTP-1b", "procedure": "In order to examine the selectivity of sodium lobarate for protein tyrosine phosphatases, the inhibitory activities of sodium lobarate against PTP-1b, PTPN2, PTPN5, PTPN6, PTPN7 and PTPN13 were examined by spectroscopically measuring the activities of the enzymes.\nSpecifically, to 0.5 mg/Ml of PTP-1b, PTPN2, PTPN5, PTPN6, PTPN7 or PTPN13 (Bioneer, Korea) in protein tyrosine phosphatase buffer (20 mM Tris-Hcl, pH 8.0, 0.75 mM NaCl, 0.5 mM EDTA, 5 mM β-mercaptoethanol, 50% glycerol), 0, 50, 100 or 200 nM sodium lobarate and the substrate [pTyr1146] insulin receptor (1142-1153, Sigma, USA) were added. Then, each of the mixtures was allowed to react at room temperature for 10-30 minutes, and then malachite green-molybdate dye solution (Sigma, USA) was added thereto and reacted at room temperature for 10 minutes. After completion of the reaction with the substrate, the absorbance at 620 nm was measured.\n(§1) In order to examine the selectivity of Lobarin for protein tyrosine phosphatases, the inhibitory activities of Lobarin against PTP-1b, PTPN2, PTPN5, PTPN6, PTPN7 and PTPN13 were examined by spectroscopically measuring the activities of the enzymes.\nSpecifically, to 0.5 mg/Ml of PTP-1b, PTPN2, PTPN5, PTPN6, PTPN7 or PTPN13 (Bioneer, Korea) in protein tyrosine phosphatase buffer (20 mM Tris-Hcl, pH 8.0, 0.75 mM NaCl, 0.5 mM EDTA, 5 mM β-mercaptoethanol, 50% glycerol), 0, 50, 100 or 200 nM Lobarin and the substrate [pTyr1146] insulin receptor (1142-1153, Sigma, USA) were added. […] After completion of the reaction with the substrate, the absorbance at 620 nm was measured.\nas §1, with “Lobarstin” for “Lobarin”, “enzymes. […] After completion of the reaction with the substrate, the absorbance at 620 nm was measured.” for “enzymes.”"}, "[1]": {"test_system": "db/db mice (type 2 diabetic model animals)", "experiment": "Intraperitoneal glucose tolerance test (IPGTT) 28 days after intraperitoneal administration", "assay_type": "in vivo", "conditions": "10 mg/kg i.p. for 28 days; for blood glucose level after injection of glucose (IPGTT): fasted 16 hours; for course of blood glucose level in IPGTT: versus control group", "procedure": "An intraperitoneal glucose tolerance test (IPGTT) in the animal model of sodium lobarate was performed in the following manner.\nTo 7-week-old male db/db mice (type 2 diabetic model animals, C57/BLKS/J-db/db, the Korea Research Institute of Bioscience and Biotechnology), physiological saline for a control group and 10 mg/kg of sodium lobarate for a test group was injected, respectively, intraperitoneally every day for 28 days. Then, the animals were fasted for 16 hours without administering physiological saline or sodium lobarate, after which glucose (500 mg/Ml; injection volume of […]) was injected intraperitoneally into the animals. 0, 15, 30, 60, 90 and 120 min after injection of glucose, blood was sampled from the tail vein, and the changes in the blood glucose levels of the samples were measured. […]\n(§2) To 7-week-old male db/db mice (type 2 diabetic model animals, C57/BLKS/J-db/db, the Korea Research Institute of Bioscience and Biotechnology), 20% DMSO for a control group and 10 mg/kg of Lobarin for a test group was injected, respectively, intraperitoneally every day for 28 days. Then, the animals were fasted for 16 hours without administering 20% DMSO or Lobarin for each group, after which glucose (500 mg/Ml; injection volume of 200 μl) was injected intraperitoneally into the animals. 0, 15, 30, 60, 90 and 120 min after injection of glucose, blood was sampled from the tail vein, and the changes in the blood glucose levels of the samples were measured.\nas §2, with “Lobarstin” for “Lobarin”, “physiological saline and Lobarstin,” for “20% DMSO or Lobarin for each group,”"}}, "data": [{"compound": "CCCCCc1c2c(cc(O)c1C(=O)[O-])OC(=O)c1c(cc(OC)cc1C(=O)CCCC)O2.[Na+]", "note": "[sodium lobarate]", "values": [{"measurement": "inhibition at 0.2 µM", "setting": "PTP-1b", "result": 50, "unit": "%"}, {"measurement": "blood glucose level after injection of glucose (IPGTT)", "setting": "[1]; 0 min", "result": 153, "unit": "mg/dL"}, {"measurement": "course of blood glucose level in IPGTT", "setting": "[1]", "result": "a low increase and a fast decrease in the blood glucose level"}, {"measurement": "blood glucose level after injection of glucose (IPGTT)", "setting": "[1]; 15 min", "result": 291, "unit": "mg/dL"}, {"measurement": "blood glucose level after injection of glucose (IPGTT)", "setting": "[1]; 30 min", "result": 361, "unit": "mg/dL"}, {"measurement": "blood glucose level after injection of glucose (IPGTT)", "setting": "[1]; 60 min", "result": 385, "unit": "mg/dL"}, {"measurement": "blood glucose level after injection of glucose (IPGTT)", "setting": "[1]; 90 min", "result": 335, "unit": "mg/dL"}, {"measurement": "blood glucose level after injection of glucose (IPGTT)", "setting": "[1]; 120 min", "result": 290, "unit": "mg/dL"}]}, {"compound": "CCC/C=C1/OC(=O)c2c(Oc3c(O)cc(O)c(C(=O)O)c3CCCCC)cc(OC)cc21", "note": "[Lobarstin]", "values": [{"measurement": "inhibition at 0.2 µM", "setting": "PTP-1b", "result": 48, "unit": "%"}, {"measurement": "blood glucose level after injection of glucose (IPGTT)", "setting": "[1]; 0 min", "result": 152, "unit": "mg/dL"}, {"measurement": "course of blood glucose level in IPGTT", "setting": "[1]", "result": "a low increase and a fast decrease in the blood glucose level"}, {"measurement": "blood glucose level after injection of glucose (IPGTT)", "setting": "[1]; 15 min", "result": 229, "unit": "mg/dL"}, {"measurement": "blood glucose level after injection of glucose (IPGTT)", "setting": "[1]; 30 min", "result": 307, "unit": "mg/dL"}, {"measurement": "blood glucose level after injection of glucose (IPGTT)", "setting": "[1]; 60 min", "result": 205, "unit": "mg/dL"}, {"measurement": "blood glucose level after injection of glucose (IPGTT)", "setting": "[1]; 90 min", "result": 162, "unit": "mg/dL"}, {"measurement": "blood glucose level after injection of glucose (IPGTT)", "setting": "[1]; 120 min", "result": 147, "unit": "mg/dL"}]}, {"compound": "CCCCCc1c(Oc2cc(OC)cc3c2C(=O)OC3(O)CCCC)c(O)cc(O)c1C(=O)O", "note": "(stereo not drawn) [Lobarin]", "values": [{"measurement": "inhibition at 0.2 µM", "setting": "PTP-1b", "result": 52.2, "unit": "%"}, {"measurement": "blood glucose level after injection of glucose (IPGTT)", "setting": "[1]; 0 min", "result": 153, "unit": "mg/dL"}, {"measurement": "course of blood glucose level in IPGTT", "setting": "[1]", "result": "a low increase and a fast decrease in the blood glucose level"}, {"measurement": "blood glucose level after injection of glucose (IPGTT)", "setting": "[1]; 15 min", "result": 358, "unit": "mg/dL"}, {"measurement": "blood glucose level after injection of glucose (IPGTT)", "setting": "[1]; 30 min", "result": 436, "unit": "mg/dL"}, {"measurement": "blood glucose level after injection of glucose (IPGTT)", "setting": "[1]; 60 min", "result": 390, "unit": "mg/dL"}, {"measurement": "blood glucose level after injection of glucose (IPGTT)", "setting": "[1]; 90 min", "result": 335, "unit": "mg/dL"}, {"measurement": "blood glucose level after injection of glucose (IPGTT)", "setting": "[1]; 120 min", "result": 290, "unit": "mg/dL"}]}]}
